{
  "source": "patent US4778811A",
  "about": "“Pharmaceutical compositions of 2-methyl-thiazolo[4,5-c]quinoline” (EGIS Gyogyszergyar, priority 1985, dated 1988)",
  "key": {"[1]": {"test": "Shuttle-box, acquisition of two-way conditioned avoidance reflex", "assay_type": "in vivo", "method": "The acquisition of a two-way conditioned avoidance reflex (CAR) was analyzed in the shuttle-box during 5 consecutive days. […] It consists of six boxes, each is separated inside by a barrier with a small gate in the middle. […] They were given 100 trials per day. One trial consisted of 15 s intertrial interval, followed by 15 s CS. The last 5 s of CS overlapped the first s of US. At each learning session the number of CAR and intersignal reactions (IR) was automatically counted and evaluated by multiway analysis of variance (ANOVA)."}, "[2]": {"test": "Measurement of motility in the shuttle-box", "assay_type": "in vivo", "settings": "30-minute observation", "description": "The apparatus described in the shuttle-box test is used also for investigating the motility of animals. In case of motility experiment all the stimuli are switched off and the animals are allowed to move freely from one compartment of the box to the other. […] Significancy is calculated by Student's test for two means."}, "[3]": {"test": "Effect on basal metabolism (O2 consumption)", "assay_type": "in vivo, rats", "settings": "urethane 0.6 g/kg i.p., 30° C.", "description": "The O2 consumption of rats was measured by the method of Issekutz and Issekutz (1952) at constant temperature (30° C.).\nO2 consumption of the animals was expressed in ml/h and calculated for body surface, and given finally in ml/h/dm^2. Following injection of urethane and the basal O2 consumption was measured during 30 minutes. This was followed by the injection of the test substance and O2 consumption was registered immediately afterwards. The difference between the highest O2 consumption and the basal value was expressed in percent.\nO2 consumption of the animals was calculated according to the following equation: [formula] V=2000 cm^3 P=pressure fall (mmHg)\nT=period of measurement (h)\nO2 consumption was calculated for body surface and expressed as ml/dm^2 /h. Body surface was calculated on the basis of the \"Diack\" formula: […]"}},
  "data": [
    {"smiles": "Cc1nc2cnc3ccccc3c2s1.Cl", "note": "[A compound, 2-methyl-thiazolo[4,5-c]quinoline-hydrochloride]", "values": [
      {"measurement": "acquisition of conditioned reflex, number of positive responses (F)", "setting": "[1]; 5 mg/kg s.c., day 1", "result": 17.8},
      {"measurement": "number of intersignal reactions (IR)", "setting": "[1]; 5 mg/kg s.c., day 1", "result": 9.5},
      {"measurement": "number of negative responses (-f)", "setting": "[1]; 5 mg/kg s.c., day 1", "result": 14.4},
      {"measurement": "acquisition of conditioned reflex, number of positive responses (F)", "setting": "[1]; 5 mg/kg s.c., day 2", "result": 29.6},
      {"measurement": "number of intersignal reactions (IR)", "setting": "[1]; 5 mg/kg s.c., day 2", "result": 8.9},
      {"measurement": "number of negative responses (-f)", "setting": "[1]; 5 mg/kg s.c., day 2", "result": 23.0},
      {"measurement": "acquisition of conditioned reflex, number of positive responses (F)", "setting": "[1]; 5 mg/kg s.c., day 3", "result": 24.3},
      {"measurement": "number of intersignal reactions (IR)", "setting": "[1]; 5 mg/kg s.c., day 3", "result": 3.2},
      {"measurement": "number of negative responses (-f)", "setting": "[1]; 5 mg/kg s.c., day 3", "result": 24.6},
      {"measurement": "acquisition of conditioned reflex, number of positive responses (F)", "setting": "[1]; 5 mg/kg s.c., day 4", "result": 23.0},
      {"measurement": "number of intersignal reactions (IR)", "setting": "[1]; 5 mg/kg s.c., day 4", "result": 2.9},
      {"measurement": "number of negative responses (-f)", "setting": "[1]; 5 mg/kg s.c., day 4", "result": 25.4},
      {"measurement": "acquisition of conditioned reflex, number of positive responses (F)", "setting": "[1]; 5 mg/kg s.c., day 5", "result": 29.4},
      {"measurement": "number of intersignal reactions (IR)", "setting": "[1]; 5 mg/kg s.c., day 5", "result": 2.3},
      {"measurement": "number of negative responses (-f)", "setting": "[1]; 5 mg/kg s.c., day 5", "result": 27.5},
      {"measurement": "acquisition of conditioned reflex, number of positive responses (F)", "setting": "[1]; 10 mg/kg s.c., day 1", "result": 12.0},
      {"measurement": "number of intersignal reactions (IR)", "setting": "[1]; 10 mg/kg s.c., day 1", "result": 8.9},
      {"measurement": "number of negative responses (-f)", "setting": "[1]; 10 mg/kg s.c., day 1", "result": 70.4},
      {"measurement": "acquisition of conditioned reflex, number of positive responses (F)", "setting": "[1]; 10 mg/kg s.c., day 2", "result": 14.7},
      {"measurement": "number of intersignal reactions (IR)", "setting": "[1]; 10 mg/kg s.c., day 2", "result": 7.3},
      {"measurement": "number of negative responses (-f)", "setting": "[1]; 10 mg/kg s.c., day 2", "result": 55.3},
      {"measurement": "acquisition of conditioned reflex, number of positive responses (F)", "setting": "[1]; 10 mg/kg s.c., day 3", "result": 7.2},
      {"measurement": "number of intersignal reactions (IR)", "setting": "[1]; 10 mg/kg s.c., day 3", "result": 2.7},
      {"measurement": "number of negative responses (-f)", "setting": "[1]; 10 mg/kg s.c., day 3", "result": 58.2},
      {"measurement": "acquisition of conditioned reflex, number of positive responses (F)", "setting": "[1]; 10 mg/kg s.c., day 4", "result": 5.5},
      {"measurement": "number of intersignal reactions (IR)", "setting": "[1]; 10 mg/kg s.c., day 4", "result": 2.1},
      {"measurement": "number of negative responses (-f)", "setting": "[1]; 10 mg/kg s.c., day 4", "result": 66.8},
      {"measurement": "acquisition of conditioned reflex, number of positive responses (F)", "setting": "[1]; 10 mg/kg s.c., day 5", "result": 7.3},
      {"measurement": "number of intersignal reactions (IR)", "setting": "[1]; 10 mg/kg s.c., day 5", "result": 2.1},
      {"measurement": "number of negative responses (-f)", "setting": "[1]; 10 mg/kg s.c., day 5", "result": 68.2},
      {"measurement": "acquisition of conditioned reflex, number of positive responses (F)", "setting": "[1]; 25 mg/kg s.c., day 1", "result": 7.0},
      {"measurement": "number of intersignal reactions (IR)", "setting": "[1]; 25 mg/kg s.c., day 1", "result": 10.7},
      {"measurement": "number of negative responses (-f)", "setting": "[1]; 25 mg/kg s.c., day 1", "result": 83.6},
      {"measurement": "acquisition of conditioned reflex, number of positive responses (F)", "setting": "[1]; 25 mg/kg s.c., day 2", "result": 6.6},
      {"measurement": "number of intersignal reactions (IR)", "setting": "[1]; 25 mg/kg s.c., day 2", "result": 5.7},
      {"measurement": "number of negative responses (-f)", "setting": "[1]; 25 mg/kg s.c., day 2", "result": 85.1},
      {"measurement": "acquisition of conditioned reflex, number of positive responses (F)", "setting": "[1]; 25 mg/kg s.c., day 3", "result": 2.6},
      {"measurement": "number of intersignal reactions (IR)", "setting": "[1]; 25 mg/kg s.c., day 3", "result": 4.4},
      {"measurement": "number of negative responses (-f)", "setting": "[1]; 25 mg/kg s.c., day 3", "result": 94.3},
      {"measurement": "acquisition of conditioned reflex, number of positive responses (F)", "setting": "[1]; 25 mg/kg s.c., day 4", "result": 1.6},
      {"measurement": "number of intersignal reactions (IR)", "setting": "[1]; 25 mg/kg s.c., day 4", "result": 3.8},
      {"measurement": "number of negative responses (-f)", "setting": "[1]; 25 mg/kg s.c., day 4", "result": 93.8},
      {"measurement": "acquisition of conditioned reflex, number of positive responses (F)", "setting": "[1]; 25 mg/kg s.c., day 5", "result": 3.1},
      {"measurement": "number of intersignal reactions (IR)", "setting": "[1]; 25 mg/kg s.c., day 5", "result": 4.2},
      {"measurement": "number of negative responses (-f)", "setting": "[1]; 25 mg/kg s.c., day 5", "result": 95.0},
      {"measurement": "motility (spontaneous crossings of the gate)", "setting": "[2]", "result": "slight motility decreasing effect"},
      {"measurement": "rate of metabolism / O2 consumption", "setting": "[3]", "result": "slightly"}
    ]}
  ]
}
